Test results as given in US20070104645A1, “Chelate based scaffolds in tumor targeting” (priority 2003, published 2007).
Square brackets hold non-standard residues; d marks the D form. Peptide text beside a SMILES is read from it. Ava = NCCCCC(=O)O

Columns and labels:
[1] = molecular target: T1, ανβ3 receptor (Homo sapiens, UniProt P05106+P06756); test: whole cell adhesion inhibition assay (HBEC cells on vitronectin-coated plates); format: cell-based; conditions: for inhibition of HBEC adhesion (in words): 100 uM
T1 construct: endothelial cells known to express ανβ3 receptors on their surface (HBEC cells); endogenous in cells; host or cells: HBEC endothelial cells
T1 sequence (P06756 31-889 limits assumed): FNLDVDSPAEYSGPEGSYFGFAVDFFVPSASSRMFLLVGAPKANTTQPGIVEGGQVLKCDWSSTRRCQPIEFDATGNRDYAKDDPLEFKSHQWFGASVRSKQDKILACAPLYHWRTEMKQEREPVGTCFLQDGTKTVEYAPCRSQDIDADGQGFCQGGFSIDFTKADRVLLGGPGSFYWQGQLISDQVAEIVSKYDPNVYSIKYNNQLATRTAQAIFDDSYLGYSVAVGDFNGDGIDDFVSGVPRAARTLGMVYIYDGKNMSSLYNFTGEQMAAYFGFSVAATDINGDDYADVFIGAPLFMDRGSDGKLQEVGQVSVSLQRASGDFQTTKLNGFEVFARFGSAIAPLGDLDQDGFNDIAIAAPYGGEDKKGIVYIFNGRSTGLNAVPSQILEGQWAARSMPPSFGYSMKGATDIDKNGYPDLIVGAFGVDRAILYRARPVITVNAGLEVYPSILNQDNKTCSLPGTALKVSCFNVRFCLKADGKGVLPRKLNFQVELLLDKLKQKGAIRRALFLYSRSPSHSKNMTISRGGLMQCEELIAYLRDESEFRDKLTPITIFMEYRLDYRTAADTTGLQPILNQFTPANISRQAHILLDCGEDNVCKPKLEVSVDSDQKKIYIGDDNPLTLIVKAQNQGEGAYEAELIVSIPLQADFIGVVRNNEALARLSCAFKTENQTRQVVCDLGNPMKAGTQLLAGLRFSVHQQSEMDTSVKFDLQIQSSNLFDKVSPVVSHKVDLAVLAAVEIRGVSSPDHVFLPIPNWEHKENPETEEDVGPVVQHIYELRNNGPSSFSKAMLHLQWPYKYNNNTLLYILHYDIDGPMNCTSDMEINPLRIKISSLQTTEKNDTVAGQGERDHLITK
T1 sequence (P06756 891-1048 partner limits assumed): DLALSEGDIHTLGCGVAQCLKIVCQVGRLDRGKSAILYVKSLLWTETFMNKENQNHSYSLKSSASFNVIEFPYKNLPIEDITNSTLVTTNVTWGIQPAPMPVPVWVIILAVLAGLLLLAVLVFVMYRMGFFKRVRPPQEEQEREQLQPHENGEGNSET
T1 sequence (P05106 27-788): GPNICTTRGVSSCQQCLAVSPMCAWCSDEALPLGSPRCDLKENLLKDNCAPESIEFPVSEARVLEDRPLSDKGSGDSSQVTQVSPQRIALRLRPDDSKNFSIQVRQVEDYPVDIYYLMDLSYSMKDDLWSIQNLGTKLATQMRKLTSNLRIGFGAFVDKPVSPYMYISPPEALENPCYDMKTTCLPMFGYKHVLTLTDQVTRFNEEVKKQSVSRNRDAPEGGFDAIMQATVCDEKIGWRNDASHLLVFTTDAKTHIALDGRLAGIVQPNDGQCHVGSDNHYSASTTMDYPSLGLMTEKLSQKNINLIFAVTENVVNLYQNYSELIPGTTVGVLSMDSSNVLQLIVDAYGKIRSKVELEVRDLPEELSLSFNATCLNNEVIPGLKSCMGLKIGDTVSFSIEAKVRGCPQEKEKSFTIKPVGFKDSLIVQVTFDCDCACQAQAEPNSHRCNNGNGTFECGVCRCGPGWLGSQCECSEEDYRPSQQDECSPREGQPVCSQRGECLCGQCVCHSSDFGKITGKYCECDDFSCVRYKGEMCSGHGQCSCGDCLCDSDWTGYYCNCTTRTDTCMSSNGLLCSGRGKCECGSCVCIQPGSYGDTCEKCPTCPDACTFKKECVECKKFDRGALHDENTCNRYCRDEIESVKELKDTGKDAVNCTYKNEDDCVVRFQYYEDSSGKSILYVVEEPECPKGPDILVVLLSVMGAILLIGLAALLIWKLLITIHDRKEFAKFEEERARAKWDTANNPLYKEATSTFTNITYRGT
Excerpt: Biological Assay Studies: A biological whole cell adhesion inhibition assay was developed to evaluate the synthesized macrocyclic RGD mimetics. This assay uses endothelial cells known to express ανβ3 receptors on their surface (HBEC cells) and also known to require vitronectin binding at the ανβ3 receptor to initiate adhesion processes. Vitronectin was coated on microtiter plates and exposed to cell suspensions. As the target molecules prepared herein compete with vitronectin for binding at the ανβ3 they will interfere with the adhesion process. This can be used to quantify/rank their ability to do so. The amount of ανβ3 mediated adhesion was determined by cell staining with subsequent quantitation by UV absorption proportional to the amount of stain present. This test procedure has been optimized with regard to vitronectin quantities, cell numbers, volumes, times, and the cell staining process.

[2] = tested on: Leydig cell tumor; conditions: mouse-based Leydig cell tumor model; cited from earlier work

Row | Compound | inhibition of HBEC adhesion (in words) [1] | decrease in amount of adhesion ([1]; 20 uMolar) | reduction in tumor growth [2]
1 | [H]/N=C(/N)NCCCC(N)C(=O)NCC(=O)NC(CC(=O)O)C(=O)NC(CO)C(=O)O (stereo not shown) [RGDS] | decreased it completely | 69% | 
2 | NCCCCC(=O)NCC(=O)NC(CC(=O)O)C(=O)NC(CO)C(=O)O (stereo not shown) [lot A015-82PBS] (H-[Ava]GDS-OH; configuration not given here) | completely inactive |  | 
3 | NC(N)=Nc1cccc(C(=O)NCC(=O)NC(CC(=O)O)c2cc(Cl)cc(Cl)c2)c1 (stereo not shown) [SC-68448] |  |  | up to 80%
